{
  "source": "paper PMC11054727",
  "about": "(Viruses, 2024)",
  "target": "trimeric construct of the SARS-CoV-2 S2 segment (Severe acute respiratory syndrome coronavirus 2, UniProt P0DTC2, A892P/A899P/A942P/F817P/K986P/V987P)",
  "assay_type": "binding",
  "data": [
    {"substance": "Ivermectin", "values": [
      {"measurement": "binding to S2", "value": "did not show any binding"}
    ]}
  ]
}
